“Also recorded” adds a separate entry of the source.
What was measured:
Urease = details: literature (Wenzel et al. 1983; Leinker 2007, laboratory screening); cited from earlier work
[1] = Maximum solubility of PPDA in solvents / solvent mixtures; type: physicochemical
Text: (§1) PPDA wurde bis zur maximalen Löslichkeit in die Lösungsmittel/ Lösungsmittelgemische eingebracht, die Lösungen wurden bei Raumtemperatur gelagert und der Wirkstoffgehalt (PPDA) nach 48 Wochen mittels HPLC überprüft.

[2] = Stability of the active ingredient (PPDA) in the solution, HPLC; type: physicochemical; details: room temperature, 483840 min
Text: as §1

NP(N)(=O)Oc1ccccc1 [PPDA, Phenylphosphorsäurediamid]
Wirksamkeit als Urease-Inhibitor (Urease): mittlerer Wirkungsstärke; also recorded: nur mittlere Wirksamkeit
Löslichkeit ([1]; DMSO/Diethylenglycolmonomethylether, Anteil LM 1 20 %, room temperature): 3,0%
Löslichkeit ([1]; DMSO/Diethylenglycolmonomethylether, Anteil LM 1 40 %, room temperature): 4,4%
Löslichkeit ([1]; DMSO/Diethylenglycolmonomethylether, Anteil LM 1 60 %, room temperature): 7,8%
Löslichkeit ([1]; DMSO/Diethylenglycolmonomethylether, Anteil LM 1 80 %, room temperature): 11,5%
Löslichkeit ([1]; DMSO/Glycerinformal, Anteil LM 1 20 %, room temperature): 4,1%
Löslichkeit ([1]; DMSO/Glycerinformal, Anteil LM 1 40 %, room temperature): 4,9%
Löslichkeit ([1]; DMSO/Glycerinformal, Anteil LM 1 60 %, room temperature): 6,7%
Löslichkeit ([1]; DMSO/Glycerinformal, Anteil LM 1 80 %, room temperature): 10,3%
Löslichkeit ([1]; DMSO/Propylenglycolmonomethyl ether, Anteil LM 1 20 %, room temperature): 2,2%
Löslichkeit ([1]; DMSO/Propylenglycolmonomethyl ether, Anteil LM 1 40 %, room temperature): 3,5%
Löslichkeit ([1]; DMSO/Propylenglycolmonomethyl ether, Anteil LM 1 60 %, room temperature): 6,2%
Löslichkeit ([1]; DMSO/Propylenglycolmonomethyl ether, Anteil LM 1 80 %, room temperature): 10,7%
Löslichkeit ([1]; DMSO/Pyrrolidon, Anteil LM 1 20 %, room temperature): 6,0%
Löslichkeit ([1]; DMSO/Pyrrolidon, Anteil LM 1 40 %, room temperature): 8,4%
Löslichkeit ([1]; DMSO/Pyrrolidon, Anteil LM 1 60 %, room temperature): 9,9%
Löslichkeit ([1]; DMSO/Pyrrolidon, Anteil LM 1 80 %, room temperature): 12,0%
Löslichkeit ([1]; DMSO, room temperature): 11,5%
Löslichkeit ([1]; Diethylenenglycolmonomethylether / Glycerinformal, Anteil LM 1 20 %, room temperature): 3,9%
Löslichkeit ([1]; Diethylenenglycolmonomethylether / Glycerinformal, Anteil LM 1 40 %, room temperature): 3,3%
Löslichkeit ([1]; Diethylenenglycolmonomethylether / Glycerinformal, Anteil LM 1 60 %, room temperature): 3,1%
Löslichkeit ([1]; Diethylenenglycolmonomethylether / Glycerinformal, Anteil LM 1 80 %, room temperature): 2,6%
Löslichkeit ([1]; Propylenglycol monomethylether / Glycerinformal, Anteil LM 1 20 %, room temperature): 2,8%
Löslichkeit ([1]; Propylenglycol monomethylether / Glycerinformal, Anteil LM 1 40 %, room temperature): 2,7%
Löslichkeit ([1]; Propylenglycol monomethylether / Glycerinformal, Anteil LM 1 60 %, room temperature): 2,2%
Löslichkeit ([1]; Propylenglycol monomethylether / Glycerinformal, Anteil LM 1 80 %, room temperature): 1,5%
Löslichkeit ([1]; Propylenglycol monomethylether / Pyrrolidon, Anteil LM 1 40 %, room temperature): 3,7%
Löslichkeit ([1]; Propylenglycol monomethylether / Pyrrolidon, Anteil LM 1 60 %, room temperature): 2,9%
Löslichkeit ([1]; Propylenglycol monomethylether / Pyrrolidon, Anteil LM 1 80 %, room temperature): 1,1%
Löslichkeit ([1]; Pyrrolidon / Glycerinformal, Anteil LM 1 20 %, room temperature): 4,3%
Löslichkeit ([1]; Tetraethylenglycol / Pyrrolidon, Anteil LM 1 40 %, room temperature): 5,5%
Löslichkeit ([1]; Tetraethylenglycol / Pyrrolidon, Anteil LM 1 60 %, room temperature): 3,6%
Löslichkeit ([1]; in most solvents generally known as good solvents for phosphoric acid amides (not named)): < 1%
Wirkstoffwiederfindung nach 48 Wochen ([2]; saturated solution in DMSO): 81%
Wirkstoffwiederfindung nach 48 Wochen ([2]; saturated solution in DMSO/Diethylenglycolmonomethylether, Anteil LM 1 20 %): 83%
Wirkstoffwiederfindung nach 48 Wochen ([2]; saturated solution in DMSO/Diethylenglycolmonomethylether, Anteil LM 1 40 %): 85%
Wirkstoffwiederfindung nach 48 Wochen ([2]; saturated solution in DMSO/Diethylenglycolmonomethylether, Anteil LM 1 60 %): 93%
Wirkstoffwiederfindung nach 48 Wochen ([2]; saturated solution in DMSO/Diethylenglycolmonomethylether, Anteil LM 1 80 %): 80%
Wirkstoffwiederfindung nach 48 Wochen ([2]; saturated solution in DMSO/Glycerinformal, Anteil LM 1 20 %): 82%
Wirkstoffwiederfindung nach 48 Wochen ([2]; saturated solution in DMSO/Glycerinformal, Anteil LM 1 40 %): 91%
Wirkstoffwiederfindung nach 48 Wochen ([2]; saturated solution in DMSO/Glycerinformal, Anteil LM 1 60 %): 92%
Wirkstoffwiederfindung nach 48 Wochen ([2]; saturated solution in DMSO/Glycerinformal, Anteil LM 1 80 %): 86%
Wirkstoffwiederfindung nach 48 Wochen ([2]; saturated solution in DMSO/Propylenglycolmonomethyl ether, Anteil LM 1 20 %): 100%
Wirkstoffwiederfindung nach 48 Wochen ([2]; saturated solution in DMSO/Propylenglycolmonomethyl ether, Anteil LM 1 40 %): 100%
Wirkstoffwiederfindung nach 48 Wochen ([2]; saturated solution in DMSO/Propylenglycolmonomethyl ether, Anteil LM 1 60 %): 95%
Wirkstoffwiederfindung nach 48 Wochen ([2]; saturated solution in DMSO/Propylenglycolmonomethyl ether, Anteil LM 1 80 %): 89%
Wirkstoffwiederfindung nach 48 Wochen ([2]; saturated solution in DMSO/Pyrrolidon, Anteil LM 1 20 %): 79%
Wirkstoffwiederfindung nach 48 Wochen ([2]; saturated solution in DMSO/Pyrrolidon, Anteil LM 1 40 %): 88%
Wirkstoffwiederfindung nach 48 Wochen ([2]; saturated solution in DMSO/Pyrrolidon, Anteil LM 1 60 %): 93%
Wirkstoffwiederfindung nach 48 Wochen ([2]; saturated solution in DMSO/Pyrrolidon, Anteil LM 1 80 %): 92%
Wirkstoffwiederfindung nach 48 Wochen ([2]; saturated solution in Diethylenenglycolmonomethylether / Glycerinformal, Anteil LM 1 20 %): 85%
Wirkstoffwiederfindung nach 48 Wochen ([2]; saturated solution in Diethylenenglycolmonomethylether / Glycerinformal, Anteil LM 1 40 %): 89%
Wirkstoffwiederfindung nach 48 Wochen ([2]; saturated solution in Diethylenenglycolmonomethylether / Glycerinformal, Anteil LM 1 60 %): 72%
Wirkstoffwiederfindung nach 48 Wochen ([2]; saturated solution in Diethylenenglycolmonomethylether / Glycerinformal, Anteil LM 1 80 %): 73%
Wirkstoffwiederfindung nach 48 Wochen ([2]; saturated solution in Propylenglycol monomethylether / Glycerinformal, Anteil LM 1 20 %): 93%
Wirkstoffwiederfindung nach 48 Wochen ([2]; saturated solution in Propylenglycol monomethylether / Glycerinformal, Anteil LM 1 40 %): 100%
Wirkstoffwiederfindung nach 48 Wochen ([2]; saturated solution in Propylenglycol monomethylether / Glycerinformal, Anteil LM 1 60 %): 100%
Wirkstoffwiederfindung nach 48 Wochen ([2]; saturated solution in Propylenglycol monomethylether / Glycerinformal, Anteil LM 1 80 %): 100%
Wirkstoffwiederfindung nach 48 Wochen ([2]; saturated solution in Propylenglycol monomethylether / Pyrrolidon, Anteil LM 1 40 %): 100%
Wirkstoffwiederfindung nach 48 Wochen ([2]; saturated solution in Propylenglycol monomethylether / Pyrrolidon, Anteil LM 1 60 %): 100%
Wirkstoffwiederfindung nach 48 Wochen ([2]; saturated solution in Propylenglycol monomethylether / Pyrrolidon, Anteil LM 1 80 %): 100%
Wirkstoffwiederfindung nach 48 Wochen ([2]; saturated solution in Pyrrolidon / Glycerinformal, Anteil LM 1 20 %): 72%
Wirkstoffwiederfindung nach 48 Wochen ([2]; saturated solution in Tetraethylenglycol / Pyrrolidon, Anteil LM 1 40 %): 87%
Wirkstoffwiederfindung nach 48 Wochen ([2]; saturated solution in Tetraethylenglycol / Pyrrolidon, Anteil LM 1 60 %): 76%

From EP3689885B1, “HIGHLY EFFECTIVE CONCENTRATES WITH PPDA AND THEIR USE IN STABILIZING MATERIALS IN ANIMAL EXCREMENTS” (SKW STICKSTOFFWERKE PIESTERITZ GmbH, priority 2019, dated 2020)
